Assay results as given in patent publication US11807835B2, “Detergent compositions containing a stabilized enzyme by phosphonates” (ECOLAB USA INC., priority 2016, dated 2023).

Key:
protease = test: Protease activity retention in detergent use solution (4000 ppm, 5 GPG water; peptidyl substrate, glycine buffer pH 9.0); type: biochemical; details: base formula; for Relative Protease Enzyme Activity: use solution at 120° F.
Method: (§1) The enzyme activities in the detergents with different phosphonate levels were tested at 4000 ppm in 5 grains per gallon (GPG) water at 120° F. with various time points collected up to 4 hours, after a use solution was generated from the detergent composition. During the tests, the samples at different time points were collected and immediately frozen in an acetone/dry ice bath and stored in −80° C. before the activity of the enzyme was evaluated. For the use of such an assay, t=0 min was the reference point for 100% enzyme activity.
(§2) Assays of enzyme activity in formulations (% retention) were conducted to simulate a presoak condition in a beaker using the chemistry, temperature, and pH conditions relevant to manual warewash or presoak applications. Enzyme activity is an indicator of the stability of the enzyme in the detergent, specifically in an aqueous use solution within a sump (which is under conditions of high pH, temperature and dilution).
The analysis by protease assay was conducted as follows. For the assays, a detergent composition was used to generate an aqueous use solution evaluated herein.
(§3) Enzyme activity under presoak or manual warewash conditions was traced quantitatively using a standard protease assay. Samples were prepared under bench top conditions, whereby the use solution from a detergent composition or detergent was obtained and maintained at a presoak or manual warewash temperature in a stirring water bath. After the time course for assessing enzyme stability is initiated, aliquots were taken at various time points and flash-frozen. A time=0 sample was prepared for each series by dissolving the detergent formulation at room temperature, mixing thoroughly, and flash freezing. Samples were thawed and diluted as necessary in an assay buffer usually for use in the protease assay. A glycine buffer at pH 9.0 is used here. The assay monitored the direct reaction of the protease on a small, commercially available peptidyl substrate, with liberation of the product providing correlation to the active enzyme content. The product was detected using a plate reader with an appreciable dynamic range (upper absorbance limit of the instrument >3.5). Enzyme activity levels were assessed relative to a calibration curve with average values for replicate tests used to map protease stability under presoak or manual warewash use conditions. Enzyme retention at each time point was calculated as the % enzyme activity relative to the time=0 sample.

amylase = test: Amylase activity retention in detergent use solution (4000 ppm, 5 GPG water; ethylidene substrate EPS, HEPES buffer pH 8.0); type: biochemical; details: base formula
Method: as §1, §2, §3
The analysis by lipase and amylase assay was conducted similarly, except with a different substrate and buffers. For lipase activity, the substrate is p-nitrophenyl valerate, and for amylase, the substrate is an ethylidene substrate (EPS). The buffer used in lipase assay is TRIS (Tris(hydroxymethyl)aminomethane) buffer at pH 8.0, and in amylase assay HEPES (4-(2-hydroxyethyl)-1-piperazineethanesulfonic acid) buffer at pH 8.0.

## NCP(=O)(O)O [AMPA, Aminomethyl phosphonic acid]
protease; compared with ATMP, DGAP, PAPEMP, MEAP
  protease stability: improves protease stability, but to a lesser extent
protease; phosphonate 0.3 wt-%, lower half of Table 4A, time 5
  Relative Protease Enzyme Activity: 86.30%
protease; phosphonate 0.3 wt-%, lower half of Table 4A, time 20
  Relative Protease Enzyme Activity: 63.30%
protease; phosphonate 0.3 wt-%, lower half of Table 4A, time 90
  Relative Protease Enzyme Activity: 37.90%
protease; phosphonate 0.3 wt-%, lower half of Table 4A, time 120
  Relative Protease Enzyme Activity: 31.17%
protease; phosphonate 0.3 wt-%, lower half of Table 4A, time 150, unit not given
  Relative Protease Enzyme Activity: 28.70%
protease; phosphonate 0.3 wt-%, lower half of Table 4A, time 210
  Relative Protease Enzyme Activity: 22.72%
protease; phosphonate 0.3 wt-%, lower half of Table 4A, time '0'
  Relative Protease Enzyme Activity: 100.00%
protease; phosphonate 0.3 wt-%, lower half of Table 4A, time '40'
  Relative Protease Enzyme Activity: 51.37%
protease; phosphonate 0.3 wt-%, lower half of Table 4A, time 'Blank'
  Relative Protease Enzyme Activity: 85.83%
protease; phosphonate 0.3 wt-%, lower half of Table 4A, time row printed '10'
  Relative Protease Enzyme Activity: 78.58%
protease; phosphonate 0.3 wt-%, lower half of Table 4A, time row printed '60'
  Relative Protease Enzyme Activity: 44.31%
protease; phosphonate 0.3 wt-%, lower half of Table 4A, time row printed '180'
  Relative Protease Enzyme Activity: 25.64%
protease; phosphonate 0.6 wt-%, time 0 min
  Relative Protease Enzyme Activity: 100.00%
protease; phosphonate 0.6 wt-%, time 5 min
  Relative Protease Enzyme Activity: 109.27%
protease; phosphonate 0.6 wt-%, time 10 min
  Relative Protease Enzyme Activity: 94.52%
protease; phosphonate 0.6 wt-%, time 20 min
  Relative Protease Enzyme Activity: 84.97%
protease; phosphonate 0.6 wt-%, time 40 min
  Relative Protease Enzyme Activity: 77.92%
protease; phosphonate 0.6 wt-%, time 60 min
  Relative Protease Enzyme Activity: 75.86%
protease; phosphonate 0.6 wt-%, time 90 min
  Relative Protease Enzyme Activity: 62.50%
protease; phosphonate 0.6 wt-%, time 120 min
  Relative Protease Enzyme Activity: 54.43%
protease; phosphonate 0.6 wt-%, time 150 min
  Relative Protease Enzyme Activity: 51.19%
protease; phosphonate 0.6 wt-%, time 180 min
  Relative Protease Enzyme Activity: 47.47%
protease; phosphonate 0.6 wt-%, time 210 min
  Relative Protease Enzyme Activity: 43.42%
protease; phosphonate 0.6 wt-%, time 240 min
  Relative Protease Enzyme Activity: 40.00%
protease; phosphonate at 0.1% elemental phosphorus, time 0 min
  Relative Protease Enzyme Activity: 107.11%
protease; phosphonate at 0.1% elemental phosphorus, time 5 min
  Relative Protease Enzyme Activity: 100.00%
protease; phosphonate at 0.1% elemental phosphorus, time 10 min
  Relative Protease Enzyme Activity: 99.75%
protease; phosphonate at 0.1% elemental phosphorus, time 20 min
  Relative Protease Enzyme Activity: 84.62%
protease; phosphonate at 0.1% elemental phosphorus, time 40 min
  Relative Protease Enzyme Activity: 70.58%
protease; phosphonate at 0.1% elemental phosphorus, time 60 min
  Relative Protease Enzyme Activity: 62.19%
protease; phosphonate at 0.1% elemental phosphorus, time 90 min
  Relative Protease Enzyme Activity: 49.17%
protease; phosphonate at 0.1% elemental phosphorus, time 120 min
  Relative Protease Enzyme Activity: 43.34%
protease; phosphonate at 0.1% elemental phosphorus, time 150 min
  Relative Protease Enzyme Activity: 38.26%
protease; phosphonate at 0.1% elemental phosphorus, time 180 min
  Relative Protease Enzyme Activity: 34.55%
protease; phosphonate at 0.1% elemental phosphorus, time 210 min
  Relative Protease Enzyme Activity: 32.27%
protease; phosphonate at 0.1% elemental phosphorus, time 240 min
  Relative Protease Enzyme Activity: 28.25%
amylase; phosphonate 0.3 wt-%, use solution at 120° F., time 0 min
  Relative Amylase Enzyme Activity: 82.13%
amylase; phosphonate 0.3 wt-%, use solution at 120° F., time 5 min
  Relative Amylase Enzyme Activity: 100.00%
amylase; phosphonate 0.3 wt-%, use solution at 120° F., time 10 min
  Relative Amylase Enzyme Activity: 95.55%
amylase; phosphonate 0.3 wt-%, use solution at 120° F., time 20 min
  Relative Amylase Enzyme Activity: 101.29%
amylase; phosphonate 0.3 wt-%, use solution at 120° F., time 40 min
  Relative Amylase Enzyme Activity: 80.17%
amylase; phosphonate 0.3 wt-%, use solution at 120° F., time 60 min
  Relative Amylase Enzyme Activity: 80.10%
amylase; phosphonate 0.3 wt-%, use solution at 120° F., time 90 min
  Relative Amylase Enzyme Activity: 87.43%
amylase; phosphonate 0.3 wt-%, use solution at 120° F., time 120 min
  Relative Amylase Enzyme Activity: 92.65%
amylase; phosphonate 0.3 wt-%, use solution at 120° F., time 150 min
  Relative Amylase Enzyme Activity: 93.49%
amylase; phosphonate 0.3 wt-%, use solution at 120° F., time 180 min
  Relative Amylase Enzyme Activity: 102.37%
amylase; phosphonate 0.3 wt-%, use solution at 120° F., time 210 min
  Relative Amylase Enzyme Activity: 103.78%
amylase; phosphonate 0.3 wt-%, use solution at 120° F., time 240 min
  Relative Amylase Enzyme Activity: 102.93%
amylase; phosphonate 0.6 wt-%, use solution at 120º F., time 0 min
  Relative Amylase Enzyme Activity: 100.00%
amylase; phosphonate 0.6 wt-%, use solution at 120º F., time 5 min
  Relative Amylase Enzyme Activity: 91.80%
amylase; phosphonate 0.6 wt-%, use solution at 120º F., time 10 min
  Relative Amylase Enzyme Activity: 92.54%
amylase; phosphonate 0.6 wt-%, use solution at 120º F., time 20 min
  Relative Amylase Enzyme Activity: 85.05%
amylase; phosphonate 0.6 wt-%, use solution at 120º F., time 40 min
  Relative Amylase Enzyme Activity: 94.06%
amylase; phosphonate 0.6 wt-%, use solution at 120º F., time 60 min
  Relative Amylase Enzyme Activity: 86.14%
amylase; phosphonate 0.6 wt-%, use solution at 120º F., time 90 min
  Relative Amylase Enzyme Activity: 90.32%
amylase; phosphonate 0.6 wt-%, use solution at 120º F., time 120 min
  Relative Amylase Enzyme Activity: 93.67%
amylase; phosphonate 0.6 wt-%, use solution at 120º F., time 150 min
  Relative Amylase Enzyme Activity: 92.05%
amylase; phosphonate 0.6 wt-%, use solution at 120º F., time 180 min
  Relative Amylase Enzyme Activity: 81.43%
amylase; phosphonate 0.6 wt-%, use solution at 120º F., time 210 min
  Relative Amylase Enzyme Activity: 94.06%
amylase; phosphonate 0.6 wt-%, use solution at 120º F., time 240 min
  Relative Amylase Enzyme Activity: 81.87%
amylase; phosphonate at 0.1% elemental phosphorus level, use solution at 120º F., time 0 min
  Relative Amylase Enzyme Activity: 97.43%
amylase; phosphonate at 0.1% elemental phosphorus level, use solution at 120º F., time 5 min
  Relative Amylase Enzyme Activity: 100.00%
amylase; phosphonate at 0.1% elemental phosphorus level, use solution at 120º F., time 10 min
  Relative Amylase Enzyme Activity: 102.34%
amylase; phosphonate at 0.1% elemental phosphorus level, use solution at 120º F., time 20 min
  Relative Amylase Enzyme Activity: 105.43%
amylase; phosphonate at 0.1% elemental phosphorus level, use solution at 120º F., time 40 min
  Relative Amylase Enzyme Activity: 92.18%
amylase; phosphonate at 0.1% elemental phosphorus level, use solution at 120º F., time 60 min
  Relative Amylase Enzyme Activity: 92.23%
amylase; phosphonate at 0.1% elemental phosphorus level, use solution at 120º F., time 90 min
  Relative Amylase Enzyme Activity: 96.88%
amylase; phosphonate at 0.1% elemental phosphorus level, use solution at 120º F., time 120 min
  Relative Amylase Enzyme Activity: 92.96%
amylase; phosphonate at 0.1% elemental phosphorus level, use solution at 120º F., time 150 min
  Relative Amylase Enzyme Activity: 103.38%
amylase; phosphonate at 0.1% elemental phosphorus level, use solution at 120º F., time 180 min
  Relative Amylase Enzyme Activity: 102.05%
amylase; phosphonate at 0.1% elemental phosphorus level, use solution at 120º F., time 210 min
  Relative Amylase Enzyme Activity: 91.32%
amylase; phosphonate at 0.1% elemental phosphorus level, use solution at 120º F., time 240 min
  Relative Amylase Enzyme Activity: 99.25%
